Data reported in patent US20220218708A1, “METHODS FOR TREATING SMARCB1 DEFICIENT CANCER OR PAZOPANIB RESISTANT CANCER” (The Institute of Cancer Research:Royal Cancer Hospital, priority 2016, published 2022).
pIC50: −log10 of the molar value.

Tests used:
Type in all cases: cell-based
HT1080 cells = test: Cell viability (WST-1) dose response; conditions: Homo sapiens, HT-1080, 72 hours
Description: (§1) Cells were cultured in DMEM (A204, G402, Saos2, U2OS, HT1080, SW684, SW872, SW982, Hs729T, RUCH-3, T9195 and AN3CA), RPMI (RMS-YM and SJSA-1) or McCoy5A (MES-SA) media supplemented with 10% FBS/2 mM glutamine/100 units/ml penicillin/[…] streptomycin in 95% air/5% CO2 atmosphere at 37° C. For SILAC experiments, A204 cells and resistant sublines were cultured in SILAC DMEM media (Thermo Fisher Scientific) supplemented with light lysine and arginine (ROKO) (Sigma) and heavy lysine and arginine (R10K8) (Goss Scientific) respectively.
(§2) 2000 cells/well were seeded in a 96-well plate and treated with inhibitors at the indicated dose and combinations for 24 h for apoptosis measurement by Caspase-Glo 3/7 Assay (Promega), or for 72 hours in cell viability measurements by WST-1 (Abcam), following the manufacturer's recommendations. IC50 data were generated from dose-response curves fitted using a four-parameter regression fit in PRISM 5 software (GraphPad).

Hs729T cells = test: Cell viability (WST-1) dose response; conditions: 72 hours
Description: as §1, §2

MES-SA cells = test: Cell viability (WST-1) dose response; conditions: Homo sapiens, 72 hours
Description: as §1, §2

RMS-YM cells = test: Cell viability (WST-1) dose response; conditions: 72 hours
Description: as §1, §2

RUCH-3 cells = test: Cell viability (WST-1) dose response; conditions: 72 hours
Description: as §1, §2

SAOS2 cells = test: Cell viability (WST-1) dose response; conditions: Homo sapiens, SAOS-2, 72 hours
Description: as §1, §2

SJSA-1 cells = test: Cell viability (WST-1) dose response; conditions: Homo sapiens, 72 hours
Description: as §1, §2

SW684 cells = test: Cell viability (WST-1) dose response; conditions: Homo sapiens, 72 hours
Description: as §1, §2

SW872 cells = test: Cell viability (WST-1) dose response; conditions: Homo sapiens, 72 hours
Description: as §1, §2

SW982 cells = test: Cell viability (WST-1) dose response; conditions: Homo sapiens, 72 hours
Description: as §1, §2

T91-95 cells = test: Cell viability (WST-1) dose response; conditions: 72 hours
Description: as §1, §2

U2OS cells = test: Cell viability (WST-1) dose response; conditions: Homo sapiens, 72 hours
Description: as §1, §2

[1] = system: A204 cells (parental, MRT cell line); test: Cell viability (WST-1) dose response; conditions: for pIC50: Homo sapiens, cell viability; for effect on cell viability: A204 cells, dose response
Description: (§3) For SILAC experiments, A204 cells and resistant sublines were cultured in SILAC DMEM media (Thermo Fisher Scientific) supplemented with light lysine and arginine (ROKO) (Sigma) and heavy lysine and arginine (R10K8) (Goss Scientific) respectively.
as §2

[2] = system: G402 cells (MRT cell line); test: Cell viability (WST-1) dose response; conditions: for pIC50: Homo sapiens, G-402, G402, cell viability, 72 hours; for effect on cell viability: G402 cells, dose response
Description: as §3, §2

[3] = system: Dasatinib resistant A204 cells (DasR); test: Cell viability in acquired resistant subline; conditions: Homo sapiens
Description: (§4) Cells were grown initially in DMEM media containing drug concentration of 500 nM. The drug was incremented when the cells had proliferated to near confluency alongside minimal visible cell death. Drug concentration was incremented from 2 μM, 3 μM and 5 μM in a stepwise manner over 6 weeks. A final drug concentration of 5 μM was maintained in resistant cells. Media and drug were replenished twice weekly.
as §2

[4] = system: Pazopanib resistant A204 cells (PazR); test: Cell viability in acquired resistant subline; conditions: Homo sapiens
Description: as §4, §2

[5] = system: Sunitinib resistant A204 cells (SunR); test: Cell viability in acquired resistant subline; conditions: Homo sapiens
Description: as §4, §2

PazR cells = test: Annexin V staining, automated imaging
Description: as §4
Details for annexin V staining and siRNA transfections are as follows. For Annexin V staining, 3000 cells/well were seeded into 96-well CellCarrier plates (Perkin Elmer). 24 h after seeding, drugs were added and incubated for an additional 48 h. FITC-Annexin V (BD Biosciences) and Hoechst 33342 (Tocris) diluted in 10× annexin binding buffer (0.1M HEPES, 1.4M NaCl, 25 mM CaCl2) was added and incubated at 37° C. for 15 minutes. Plates were imaged using an Operetta high-content imager (Perkin Elmer). Images were analysed using Harmony software (Perkin Elmer), and annexin positivity defined as number of annexin-FITC-positive cells relative to total number of Hoechst-positive nuclei. The interaction between drugs was analysed by the Chou and Talalay median effect principle as described (Todd et al., 2014). siRNA transfections were performed as follows, 2000 cells/well were reverse transfected in 96-well plates with SMARTpool siRNAs (Dharmacon) using Lullaby reagent (Oz Biosciences). Where indicated, cells were treated with vehicle or drug 24 h post transfection. Apoptosis and cell viability were measured using Caspase 3/7 Glo and Cell Titre Glo (Promega), respectively, 72-96 h post transfection according to manufacturer's instructions and normalised to cells transfected with a non-targeting siRNA pool.

[6] = system: MRT cells (A204 and G402); test: Apoptosis by Caspase-Glo 3/7 assay; conditions: caspase 3/7 activity
Description: as §2

AKT phosphorylation = test: Immunoblot of AKT phosphorylation; conditions: MRT cells; drug treatment for 1 hour (FIG. 3H)
Description: (§5) After the indicated treatments, cells were lysed in RIPA lysis buffer at 4° C. Lysates were loaded onto SDS-PAGE gels followed by blotting onto PVDF membranes.
(§6) Details of antibodies, immunoprecipitation and immunofluorescence analyses are as follows. For immunoblotting, cells were lysed in RIPA lysis buffer supplemented with protease and phosphatase inhibitors (Thermo Pierce) at 4° C. Lysates were loaded onto SDS-PAGE gels followed by blotting onto PVDF membranes as described (Iwai et al., 2013). Blots were probed with primary antibodies followed by corresponding horseradish peroxidase-conjugated secondary antibodies. Primary antibodies include anti-PDGFRα #3174, CST; anti-pAKT (S473) #4058, CST; anti-AKT #4691, CST; anti-pERK-T202/Y204 #4370, CST; anti-ERK #9102, CST; anti-FGFR1 #76464, abcam; anti-BAF47 (SMARCB1) #61211, BD; anti-TFR #13-6890, ThermoFisherScientific; anti-pY1000 #8954, CST and anti-α-Tubulin #T5168, Sigma. Secondary antibodies include Polyclonal Goat Anti-Rabbit HRP #P0448, Dako and Anti-Mouse HRP #G32-62G-1000, Signalchem. Immunoreactive bands were visualized by chemiluminescence (Amersham) and the blots were exposed to x-ray XAR film (Kodak).

ERK1/2 phosphorylation = test: Immunoblot of ERK1/2 phosphorylation; conditions: MRT cells; drug treatment for 1 hour (FIG. 3H)
Description: as §5, §6

PDGFRα phosphorylation = target: T1, PDGFRα phosphorylation (Homo sapiens, UniProt P16234); test: Immunoprecipitation of PDGFRα and phosphotyrosine immunoblot; conditions: A204 cells; 1 μM for 1 hour
T1 construct: Immunoprecipitation of PDGFRα followed by immunoblotting with phosphotyrosine-specific antibody (PY1000) in A204 cells; endogenous in cells; host or cells: A204 cells
Description: For immunoprecipitation, cells were lysed in RIPA lysis buffer (contained 1% Triton) supplemented with protease and phosphatase inhibitors (Thermo Pierce) at 4° C. After microcentrifugation at 2,000 rpm. for 10 min, 200 μg of lysate was diluted in 200 ul lysis buffer. […] Protein G plus agarose beads were added and incubated for three hours at 4° C. to collect immune complexes, washed five times with lysis buffer and eluted in sample buffer. Proteins were resolved by SDS-PAGE, transferred to PVDF membrane and immunoblotting was performed as described above.

[7] = 72 h, Pazopanib resistant A204 cell line, single and combination drug treatment, Table S3
[8] = A204 Pazopanib resistant subline, cell viability, Table S2

T1 sequence (P16234 24-1089): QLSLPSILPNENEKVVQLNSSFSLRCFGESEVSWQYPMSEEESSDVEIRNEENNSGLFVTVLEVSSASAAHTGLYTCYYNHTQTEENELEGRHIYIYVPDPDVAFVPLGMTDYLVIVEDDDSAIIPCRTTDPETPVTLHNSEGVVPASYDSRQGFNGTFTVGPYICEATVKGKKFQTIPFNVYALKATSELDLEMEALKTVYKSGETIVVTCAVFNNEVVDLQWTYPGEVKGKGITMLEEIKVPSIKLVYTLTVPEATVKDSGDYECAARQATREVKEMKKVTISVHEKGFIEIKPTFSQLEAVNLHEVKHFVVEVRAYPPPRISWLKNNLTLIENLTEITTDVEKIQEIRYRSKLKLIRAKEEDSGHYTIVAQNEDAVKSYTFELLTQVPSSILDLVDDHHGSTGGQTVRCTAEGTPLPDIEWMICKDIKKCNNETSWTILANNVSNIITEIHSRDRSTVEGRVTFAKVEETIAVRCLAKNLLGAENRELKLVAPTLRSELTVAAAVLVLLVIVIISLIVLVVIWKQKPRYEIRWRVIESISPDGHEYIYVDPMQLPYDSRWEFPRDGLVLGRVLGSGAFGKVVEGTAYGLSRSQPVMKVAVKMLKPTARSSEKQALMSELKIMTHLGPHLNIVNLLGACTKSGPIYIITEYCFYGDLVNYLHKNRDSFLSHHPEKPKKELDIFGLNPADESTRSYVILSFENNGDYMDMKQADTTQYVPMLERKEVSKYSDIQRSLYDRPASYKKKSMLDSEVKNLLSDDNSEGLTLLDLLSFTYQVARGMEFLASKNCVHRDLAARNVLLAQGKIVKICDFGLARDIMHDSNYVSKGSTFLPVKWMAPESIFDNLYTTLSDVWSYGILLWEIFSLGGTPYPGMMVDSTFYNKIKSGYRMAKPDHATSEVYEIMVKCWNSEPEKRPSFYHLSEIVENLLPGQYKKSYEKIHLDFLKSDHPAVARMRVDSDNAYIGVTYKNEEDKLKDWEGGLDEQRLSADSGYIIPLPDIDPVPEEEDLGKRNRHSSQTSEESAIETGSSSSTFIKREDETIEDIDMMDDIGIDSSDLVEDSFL

`Cc1ccc(Nc2nccc(N(C)c3ccc4c(C)n(C)nc4c3)n2)cc1S(N)(=O)=O` [Pazopanib, pazopanib] was tested, and the pIC50 (HT1080 cells) was < 5.00, the pIC50 (Hs729T cells) was < 5.00 and the pIC50 (MES-SA cells) was < 5.00. The pIC50 (RMS-YM cells) was < 5.00, the pIC50 (RUCH-3 cells) was < 5.00 and the pIC50 (SAOS2 cells) was < 5.00. For the same molecule, the pIC50 (SJSA-1 cells) was < 5.00, the pIC50 (SW684 cells) was < 5.00 and the pIC50 (SW872 cells) was < 5.00. For the same molecule, the pIC50 (SW982 cells) was < 5.00, the pIC50 (T91-95 cells) was < 5.00 and the pIC50 (U2OS cells) was < 5.00. It also gave a pIC50 ([1]; A204, 72 hours, Table S1) of 6.66, a pIC50 ([1]; A204 Parental, Table S2) of 6.61 and a pIC50 [2] of 6.62. For the same molecule, the pIC50 [3] was < 5.00, the pIC50 [4, 7] was < 5.00 and the pIC50 [4, 8] was < 5.00. For the same molecule, the pIC50 [5] was < 5.00 and the “proportion of apoptotic cells compared to vehicle control” value (PazR cells) was “no effect”.

`Cc1ccc(C(=O)Nc2ccc(CN3CCN(C)CC3)c(C(F)(F)F)c2)cc1C#Cc1cnc2cccnn12` [Ponatinib, 3-(2-imidazo[1,2-b]pyridazin-3-ylethynyl)-4-methyl-N-[4-[(4-methyl-1-piperazinyl)methyl]-3-(trifluoromethyl)phenyl]-benzamide] was tested, and the “effect on cell viability” value [1] was “sensitive”, the “effect on cell viability” value [2] was “sensitive” and the pIC50 [4, 7] was 6.57. For the same molecule, the “apoptosis” value [6] was “enhanced apoptosis”, the “proportion of apoptotic cells compared to vehicle control” value (PazR cells) was “significant increase” and the “AKT phosphorylation” value (AKT phosphorylation) was “suppression”. For the same molecule, the “ERK1/2 phosphorylation” value (ERK1/2 phosphorylation) was “suppression”.

In the case of `CCN(CC)CCNC(=O)c1c(C)[nH]c(/C=C2\C(=O)Nc3ccc(F)cc32)c1C` [Sunitinib, sunitinib], the pIC50 (HT1080 cells) was < 5.00, the pIC50 (Hs729T cells) was < 5.00 and the pIC50 (MES-SA cells) was < 5.00. For the same molecule, the pIC50 (RMS-YM cells) was < 5.00, the pIC50 (RUCH-3 cells) was < 5.00 and the pIC50 (SAOS2 cells) was 5.34. For the same molecule, the pIC50 (SJSA-1 cells) was < 5.00, the pIC50 (SW684 cells) was < 5.00 and the pIC50 (SW872 cells) was < 5.00. For the same molecule, the pIC50 (SW982 cells) was 6.24, the pIC50 (T91-95 cells) was < 5.00 and the pIC50 (U2OS cells) was < 5.00. For the same molecule, the pIC50 ([1]; A204, 72 hours, Table S1) was 7.44, the pIC50 ([1]; A204 Parental, Table S2) was 7.44 and the pIC50 [2] was 7.43. For the same molecule, the pIC50 [3] was 5.30, the pIC50 [4, 8] was < 5.00 and the pIC50 [5] was < 5.00.

For AZD4547, the “effect on cell viability” value [1] was “ineffective” and the “effect on cell viability” value [2] was “ineffective”.

With `Cc1nc(Nc2ncc(C(=O)Nc3c(C)cccc3Cl)s2)cc(N2CCN(CCO)CC2)n1` [Dasatinib, dasatinib] the pIC50 (HT1080 cells) was < 5.00, the pIC50 (Hs729T cells) was < 5.00 and the pIC50 (MES-SA cells) was < 5.00. For the same molecule, the pIC50 (RMS-YM cells) was < 5.00, the pIC50 (RUCH-3 cells) was < 5.00 and the pIC50 (SAOS2 cells) was 5.94. For the same molecule, the pIC50 (SJSA-1 cells) was < 5.00, the pIC50 (SW684 cells) was 7.20 and the pIC50 (SW872 cells) was 5.98. The pIC50 (SW982 cells) was 6.73, the pIC50 (T91-95 cells) was < 5.00 and the pIC50 (U2OS cells) was < 5.00. For the same molecule, the pIC50 ([1]; A204, 72 hours, Table S1) was 7.38, the pIC50 ([1]; A204 Parental, Table S2) was 7.38 and the pIC50 [2] was 7.21. For the same molecule, the pIC50 [3] was < 5.00, the pIC50 [4, 8] was < 5.00 and the pIC50 [5] was < 5.00.

For `CCN1CCN(c2ccc(Nc3cc(N(C)C(=O)Nc4c(Cl)c(OC)cc(OC)c4Cl)ncn3)cc2)CC1` [BGJ398], the “effect on cell viability” value [1] was “reduced viability”, the pIC50 [4, 7] was 6.61 and the “proportion of apoptotic cells compared to vehicle control” value (PazR cells) was “significant increase”. For the same molecule, the “AKT phosphorylation” value (AKT phosphorylation) was “no effect”, the “ERK1/2 phosphorylation” value (ERK1/2 phosphorylation) was “decreased” and the “PDGFRα phosphorylation” value (PDGFRα phosphorylation) was “no effects”.
